Laboratory results published in patent publication US6566545B2, “Menthol derivatives and process for preparing the same” (Pacific Corporation, priority 2001, dated 2003).

Columns and labels:
[1] = test system: back of New Zealand White Rabbit; assay: Retinol-induced skin irritation on rabbit back, Draize Primary Irritation Index; format: in vivo; conditions: for Irritation Index: Draize Primary Irritation Index, 0.01% agent applied with 1000 I.U. retinol as irritation source, twice a day, rabbit back skin; for Relative Ratio: irritation relative to blank applied only with retinol, 0.01% agent
Experimental: The hairs on the back of New Zealand White Rabbit were removed and fed with sufficient water and nutrition. At the areas of 1.5 cm×1.5 cm on the back of the rabbit, menthol, menthol 3-aminopropylphosphate (MPA) and 1000 I.U. of retinol as irritation source were applied respectively. The number of applying positions for each rabbit was 8˜10, and the agents were applied twice a day with 6 hours of time interval. The applied positions were exposed to air. Erythema, rash or edema was measured everyday after 48 hours has passed from the first apply during 1 week to observe the irritation. According to the “Primary Irritation Index” of Draize, the degree of irritation was determined. Relative irritation was calculated with the ratio to the blank sample that applied only with retinol, and the results are shown in Table 1 and FIG. 1.

[2] = Solubility in aqueous and aqueous mixed solution
Source text: To observe the solubility of the menthol 3-aminopropylphosphate in the aqueous phase, solubility were measure in aqueous and aqueous mixed solution.
Menthol was used as relativity group.

phosphatase = assay: Hydrolysis by phosphatase in phosphoric buffer pH 7.4, HPLC; format: in vitro ADME; conditions: 3-aminopropylphosphoric acid measured by HPLC (FIG. 2)
Experimental: To clarify the activity of menthol 3-aminopropylphosphate obtained in Example 2, the hydrolysis of the menthol 3-aminopropylphosphate by a phosphatase in the skin was observed. That is, the preparation of menthol and 3-aminopropylphosphoric acid by the hydrolysis was observed.
3-aminopropylphosphate and phosphatase were added to phosphoric buffer solution with pH 7.4, then, hydrolysis was performed. The phosphatase used above was Alkaline Phosphate manufactured by SIGMA, Co., Ltd.
The amount of the 3-aminopropylphosphoric acid prepared by the hydrolysis was measured by means of HPLC, and the results are shown in FIG. 2.

Structure (SMILES)	Irritation Index [1]	Relative Ratio [1]	solubility ([2]; H2O)	solubility ([2]; H2O:1,3-BG = 1:1)	solubility ([2]; H2O:Ethanol = 1:1)	solubility ([2]; H2O:Ethanol = 5:1)	aqueous solubility compared with menthol ([2]; in words)	hydrolysis by phosphatase (phosphatase)
C[C@]12CCC(=O)C=C1CC[C@@H]1[C@@H]2[C@@H](O)C[C@@]2(C)[C@H]1CC[C@]2(O)C(=O)CO [hydrocortisone]	5.10	0.53						
CC1CCC(C(C)C)C(OP(=O)(O)OCCCN)C1 (stereo not drawn) [menthol 3-aminopropyl phosphate, Menthol 3-Aminopropylphosphate]	6.07	0.63	0.3%	5%	6%	1%	increased very much compared with menthol itself	hydrolyzed by the phosphatase of the skin and formed menthol and 3-aminopropylphosphoric
CC1CCC(C(C)C)C(O)C1 (stereo not drawn) [menthol]	9.34	0.97						
